Results reported in US12076307B2, “Compositions for prevention or treatment of acute radiation syndrome and other radiation exposure” (priority 2017, dated 2024).

Columns and labels:
SD rat [1] = assay: Immunotoxicity study (splenic blastogenesis response test); format: in vivo; details: Oral; 4 weeks
Source text: (§1) Various toxicology studies have been performed. All studies were GLP-compliant unless otherwise noted.

ICR mouse = assay: Micronucleus assay; format: in vivo; details: Oral; Single; 0, 500, 1000, 2000 mg/kg
Source text: as §1

Sprague-Dawley rats = assay: Central nervous system of rats (FOB); format: in vivo, rat; details: doses up to 2000 mg/kg; to 24 hrs
Experimental: Sprague-Dawley rats (n=8 males/group) received control material (olive oil) or EC-18 at 500, 1000, and 2000 mg/kg. The functional observational battery test, which included observations inside the cage, in open space, and while holding in the hands, along with sensory-motor function, and body temperature measurements were performed before EC-18 administration and 0.5, 1, 3, 6, and 24 hrs after control or EC-18 administration.

OAT3 = molecular target: T1, OAT3 (Homo sapiens, UniProt Q8TCC7); assay: Drug transporter inhibition, OAT3; format: in vitro ADME; details: 100 nM [3H] estrone-3-sulfate; transfected HEK-293 cells
T1 construct: expressed in transfected cells; host or cells: HEK-293
T1 sequence (Q8TCC7 whole entry, species assumed): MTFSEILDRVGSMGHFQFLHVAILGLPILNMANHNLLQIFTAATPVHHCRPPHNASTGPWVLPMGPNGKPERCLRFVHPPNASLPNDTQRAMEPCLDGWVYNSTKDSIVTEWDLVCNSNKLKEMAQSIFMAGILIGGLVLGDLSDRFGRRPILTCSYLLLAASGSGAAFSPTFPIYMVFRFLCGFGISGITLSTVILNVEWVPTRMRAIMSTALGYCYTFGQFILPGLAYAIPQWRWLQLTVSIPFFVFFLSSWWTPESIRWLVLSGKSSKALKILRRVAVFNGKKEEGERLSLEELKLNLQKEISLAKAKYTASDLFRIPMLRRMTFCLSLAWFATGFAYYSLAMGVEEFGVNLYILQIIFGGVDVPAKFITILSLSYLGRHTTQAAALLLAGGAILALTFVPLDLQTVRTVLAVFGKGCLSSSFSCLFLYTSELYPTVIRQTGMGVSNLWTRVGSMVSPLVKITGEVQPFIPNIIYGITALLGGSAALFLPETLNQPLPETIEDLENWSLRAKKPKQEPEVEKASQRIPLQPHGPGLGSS
Experimental: This study examined the potential of EC-18 to interact with the transporter proteins that have been known to be involved in the absorption of commercially available drugs. EC-18 was pre-incubated with HEK-293 cells and LLC-PK1 cells that were transfected with the genes of most drug transporters as follows: OATP1B1, OATP1B3, OAT1, OAT3 and OCT2, and BCRP and P-gp, respectively.

[2] = test system: Balb/c mice, whole body radiation 1 Gy; assay: Blood immune cell counts (CBC) in radiation-induced leukopenia (RIL) ARS model; format: in vivo, mouse
Source text: Balb/c mice (9-week-old male) were purchased from Koatech (Pyeongtaek, Republic of Korea) and maintained in a specific pathogen-free (SPF) environment to establish an animal model of acute radiation syndrome. In order to evaluate the effect of PLAG on the reduction of immune cells by radiation, the following three groups were constructed for this study. (1) normal control group (positive control); (2) Radiotherapy-Radiation induced leukopenia (RIL) group (negative control group); And (3) RIL+PLAG treated group (experimental group).
Specifically, mice treated with RIL and […] were exposed to whole body radiation at 1 Gy (100 rad=1.06 min). For the RIL+PLAG treatment group, 50 mg/kg/day of PLAG (Enzychem Lifesciences Co., Daejeon, Republic of Korea) was orally administered daily for 4 consecutive days after irradiation. The normal controls were not exposed to radiation. On the 5th day after irradiation, blood samples were collected, and then Complete Blood Count (CBC) was measured using a Mindray BC-5300 auto hematology analyzer (Shenzhen Mindray Bio-medical Electronics, China) so that the number of blood leukocytes, neutrophils and lymphocytes in blood could be counted (FIG. 1).

Balb/c mice, 6.11 Gy TBI = assay: Structural analog / calorie effect study: EC-18, PLH, olive oil in 6.11 Gy ARS model; format: in vivo, mouse; details: 250 mg/kg daily
Experimental: Similarly, a structural analog efficacy study was conducted to identify the optimally functional molecule in the ARS murine model. The study was performed with the structural analog in which the acetyl group in EC-18 is replaced with a hydroxyl group (yielding palmitic linoleic hydroxyl glycerol, PLH) in 20 Balb/c mice (10 female and 10 male) per group. Mice were irradiated with TBI of 6.11Gy at day 0 and 250 mg/kg of EC-18 or PLH were given daily in-life.
The purpose of this study was to assess whether extra calories of EC-18 contribute to the enhanced survival in mice after exposure to a whole-body sublethal dose of γ-radiation. The study was performed with the structural analog in which the acetyl group in EC-18 is replaced with a hydroxyl group (yielding PLH) in a total of 100 BALB/c mice ([…]; 20 animals per study group) aged at 11 weeks. Mice were irradiated with TBI of 6.11Gy at day 0 and the same dosage (250 mg/kg) of EC-18, PLH, or olive oil (vehicle control) were given daily in-life.

[3] = test system: BALB/c mice, 6.11 Gy γ-radiation TBI; assay: Hematopoietic ARS (H-ARS) CBC time course, 6.11 Gy; format: in vivo, mouse
Experimental: For the time course analysis of hematopoietic ARS (H-ARS), female mice were grouped 5 per treatment cohorts; γ-radiation only cohort (positive control) and γ-radiation with EC-18 250 mg/kg cohort. For the analysis of dose effect of EC-18 administration on H-ARS, mice were grouped 8 (5 males and 3 females) per treatment cohorts; γ-radiation only cohort (positive control), γ-radiation with EC-18 50 mg/kg cohort, γ-radiation with EC-18 100 mg/kg cohort, γ-radiation with EC-18 250 mg/kg cohort and γ-radiation with EC-18 100 mg/kg cohort. The whole blood was collected from the orbital sinuses using EDTA-free capillary tubes (Kimble Chase Life Science and Research Products LLC, FL, USA) and collection tubes containing K3E-K3EDTA (Greiner Bio-One International, Kremsmunster, Austria).
The therapeutic effect of EC-18 administration on H-ARS was then evaluated. […] Groups of BALB/c mice (n=5, female for FIG. 32A through FIG. 32E and n=8, 5 male, 3 female for FIG. 32F through FIG. 32J) were exposed to 6.11Gy of γ-radiation and various doses of EC-18 were orally administered once daily to day 15, or remained untreated. FIGS. 32A through 32E show the time course of the white blood cell count (WBC; FIG. 32A), absolute Neutrophil count (ANC; FIG. 32B), absolute Lymphocyte count (ALC; FIG. 32C), platelet count (PLT; FIG. 32D) and red blood cell count (RBC; FIG. 32E) over 15 days, respectively. FIG. 32F through FIG. 32J show the dose effect of EC-18 administration on WBC (FIG. 32F), ANC (FIG. 32G), ALC (FIG. 32H), PLT (FIG. 32I) and BRC (FIG. 32J) on day 15, respectively. ns; not significant,* p<0.05, **p<0.01, *** p<0.005.

SD rat [4] = assay: Single-dose toxicity, SD rat; format: in vivo
Source text: as §1

[5] = RIL + PLAG 50 mg/kg/day oral 4 days, day 5, n=3
[6] = EC-18 250 mg/kg daily, n=5 female

## CCCCC/C=C\C/C=C\CCCCCCCC(=O)OC(COC(C)=O)COC(=O)CCCCCCCCCCCCCCC (stereo not drawn) [EC-18, 1-palmitoyl-2-linoleoyl-3-acetylglycerol]
SD rat [1]
  T and B lymphocyte proliferation: No changes in T and B
ICR mouse
  micronucleus induction in mouse bone marrow cells: EC-18 does not affect
Sprague-Dawley rats
  CNS (functional observational battery): did not affect the CNS
OAT3
  IC50: > 32 µM
[2]; PLAG 50 mg/kg/day, day 5
  increase of blood leukocyte count vs RIL group: 63%
  increase of blood lymphocyte count vs RIL group: 85%
  increase of blood neutrophil count vs RIL group: 34%
[2]; [5]
  Lymphocyte: 2.2±0.42 10^3/μL
  Neutrophils: 1.17±0.35 10^3/μL
  White blood cells: 3.56±0.84 10^3/μL
Balb/c mice, 6.11 Gy TBI
  No. of mice that survived/total: 14/20
  Survival: 70%
  Survival time of decedents, Mean ± SEM: 23.7 ± 1.4 days
  Survival time of decedents, Median: 23.5 days
  body weight loss induced by irradiation: effectively prevented and rapidly recovered weight loss
  increase in survival vs control and PLH-treated group: 2 fold
  survival compared to control group: significant increase
[3]; [6]
  duration of severe neutropenia: 7.2 ± 1.79 days
  mean first day of neutropenia (ANC<500 cells/μL): 2.2 ± 1.09 days
  mean nadir of ANC: 20.0±10.00 cells/μL
[3]; oral once daily to day 15
  reduction of PLT and RBC induced by a single TBI: attenuated
  γ-radiation-induced depletion of WBC, ANC and ALC: significantly attenuated
SD rat [4]; Oral
  Approximate lethal dose: dose: >2000 mg/kg
SD rat [4]; Oral, 0, 2000 mg/kg
  mortality: No dead animals
